ChEMBL document CHEMBL4033775, “Natural-Products-Inspired Use of the gem-Dimethyl Group in Medicinal Chemistry” (J Med Chem, 2018)
Blank lines part the entries; values can stand above or below the molecule they belong to.

Key:
1A9 = assay: Cytotoxicity against human 1A9 cells; type: functional, cell-based
[1] = tested on: Trypanosoma brucei brucei; assay: Antitrypanosomal activity against Trypanosoma brucei brucei after 72 hrs by resazurin-based fluorescence assay; type: functional
[2] = biological target: Sodium/hydrogen exchanger 1 (Homo sapiens, UniProt P19634); assay: Inhibition of human NHE1 by cell based assay
[3] = Clearance in po dosed rat; type: ADME, organism-based; conditions: in vivo
[4] = Half life in po dosed rat; type: ADME, organism-based; conditions: in vivo
[5] = Inhibition of bacterial DNA gyrase subunit B; set-up: species or system Bacteria
Homo sapiens = species on record: Homo sapiens; assay: Antagonist activity at nAChR (unknown origin) relative to (+/-)-mecamylamine
Rattus norvegicus [6] = assay: Anti-hypertensive activity in conscious spontaneously hypertensive Okamoto rat assessed as reduction in systolic blood pressure at 0.3 mg/kg, po measured up to 6 hrs post dose relative to control; type: functional; set-up: scale not given: the % may be the effect or the level left
Rattus norvegicus [7] = assay: Anti-hypertensive activity in conscious spontaneously hypertensive Okamoto rat assessed as reduction in systolic blood pressure at 0.1 mg/kg, po measured up to 6 hrs post dose relative to control; type: functional; set-up: scale not given: the % may be the effect or the level left
A549 = assay: Cytotoxicity against human A549 cells; type: functional, cell-based
MCF7 = assay: Cytotoxicity against human MCF7 cells assessed as reduction in protein synthesis; type: functional, cell-based
HeLa = assay: Cytotoxicity against human HeLa cells assessed as reduction in protein synthesis at 0.05 uM; type: functional
Rattus norvegicus [8] = assay: Anti-hypertensive activity in conscious spontaneously hypertensive Okamoto rat assessed as reduction in systolic blood pressure at 1 mg/kg, po measured up to 6 hrs post dose relative to control; type: functional; set-up: scale not given: the % may be the effect or the level left
Rattus norvegicus [9] = assay: Anti-hypertensive activity in conscious spontaneously hypertensive Okamoto rat assessed as reduction in systolic blood pressure at 10 mg/kg, po measured up to 6 hrs post dose relative to control; type: functional; set-up: scale not given: the % may be the effect or the level left
[10] = biological target: 5-hydroxytryptamine receptor 2C (Homo sapiens, UniProt P28335); assay: Agonist activity at human 5-HT2C receptor expressed in mouse NIH/3T3 cells assessed as induction of IP3 formation after 0.5 hrs; type: functional, cell-based
Rattus norvegicus [11] = assay: Anti-hypertensive activity in conscious spontaneously hypertensive Okamoto rat assessed as reduction in systolic blood pressure at 3 mg/kg, po measured up to 6 hrs post dose relative to control; type: functional; set-up: scale not given: the % may be the effect or the level left
Prothrombin [12] = biological target: Prothrombin (Bos taurus, UniProt P00735); assay: Inhibition of bovine plasma thrombin using chromogenix AB as substrate after 30 secs by UV-spectrophotometry
Collagenase 3 = Collagenase 3 (Homo sapiens, UniProt P45452); assay: Inhibition of MMP13 (unknown origin) expressed in Escherichia coli BL21(DE3) using Mca-Pro-Leu-Gly-Leu-Dpa-Ala-Arg-NH2 as substrate after 20 to 30 mins by spectrofluorimetric analysis
Matrilysin = biological target: T1, Matrilysin (Homo sapiens, UniProt P09237); assay: Inhibition of MMP7 (unknown origin) expressed in Escherichia coli BL21(DE3) using Mca-Pro-Leu-Gly-Leu-Dpa-Ala-Arg-NH2 as substrate after 20 to 30 mins by spectrofluorimetric analysis
T1 sequence (P09237 whole entry): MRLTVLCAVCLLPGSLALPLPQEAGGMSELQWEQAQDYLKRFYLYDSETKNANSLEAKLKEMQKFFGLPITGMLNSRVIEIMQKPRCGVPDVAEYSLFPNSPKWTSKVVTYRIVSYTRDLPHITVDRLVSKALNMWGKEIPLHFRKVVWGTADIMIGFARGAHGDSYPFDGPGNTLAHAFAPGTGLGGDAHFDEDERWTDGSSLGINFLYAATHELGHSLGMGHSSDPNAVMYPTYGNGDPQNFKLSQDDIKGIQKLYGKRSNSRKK

Interstitial collagenase = Interstitial collagenase (Homo sapiens, UniProt P03956); assay: Inhibition of human interstitial recombinant N-terminal MMP1 expressed in Escherichia coli BL21(DE3) using Mca-Pro-Leu-Gly-Leu-Dpa-Ala-Arg-NH2 as substrate after 20 to 30 mins by spectrofluorimetric analysis
Prothrombin [13] = biological target: Prothrombin (Homo sapiens, UniProt P00734); assay: Inhibition of human plasma thrombin using chromogenix AB as substrate after 30 secs by UV-spectrophotometry
[14] = biological target: Retinoic acid receptor RXR-beta (Homo sapiens, UniProt P28702); assay: Agonist activity at RXRbeta (unknown origin)
[15] = biological target: Retinoic acid receptor RXR-gamma (Homo sapiens, UniProt P48443); assay: Agonist activity at RXRgamma (unknown origin)
[16] = biological target: Retinoic acid receptor alpha (Homo sapiens, UniProt P10276); assay: Agonist activity at RARaplha (unknown origin)
[17] = biological target: Retinoic acid receptor gamma (Homo sapiens, UniProt P13631); assay: Agonist activity at RARgamma (unknown origin)
[18] = biological target: Retinoic acid receptor beta (Homo sapiens, UniProt P10826); assay: Agonist activity at RARbeta (unknown origin)
[19] = Cmax in Sprague-Dawley rat at 10 mg/kg, po measured up to 120 mins post dose by HPLC analysis; type: ADME, organism-based; set-up: dose 10 mg/kg, route oral; conditions: in vivo
[20] = Tmax in Sprague-Dawley rat at 10 mg/kg, po measured up to 120 mins post dose by HPLC analysis; type: ADME, organism-based; conditions: in vivo
[21] = biological target: Integrin alpha-IIb/beta-3 (Homo sapiens, UniProt P05106+P08514); assay: Inhibition of human GP2b/3a interaction with human fibrinogen after 3 hrs by ELISA; type: protein-complex assay
[22] = Half life in Hartley guinea pig at 1 mg/kg, iv measured up to 180 mins post dose by HPLC analysis; type: ADME, organism-based, Cavia porcellus; conditions: in vivo

Retinoic acid receptor RXR-beta, sequence (P28702 whole entry): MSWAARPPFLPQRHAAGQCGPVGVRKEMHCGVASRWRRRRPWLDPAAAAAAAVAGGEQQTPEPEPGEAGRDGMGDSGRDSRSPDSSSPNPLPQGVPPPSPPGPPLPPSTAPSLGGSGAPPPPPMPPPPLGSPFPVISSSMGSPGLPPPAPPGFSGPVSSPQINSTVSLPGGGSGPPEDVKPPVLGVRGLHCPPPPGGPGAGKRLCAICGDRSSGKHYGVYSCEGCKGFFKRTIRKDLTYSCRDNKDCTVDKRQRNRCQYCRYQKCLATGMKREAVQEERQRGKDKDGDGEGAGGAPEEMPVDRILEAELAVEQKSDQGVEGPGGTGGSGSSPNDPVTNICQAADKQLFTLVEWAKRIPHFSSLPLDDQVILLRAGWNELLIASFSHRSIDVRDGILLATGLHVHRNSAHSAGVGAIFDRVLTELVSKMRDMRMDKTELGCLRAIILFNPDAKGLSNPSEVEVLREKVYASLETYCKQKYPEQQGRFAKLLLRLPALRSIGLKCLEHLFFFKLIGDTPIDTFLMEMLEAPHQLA
Retinoic acid receptor gamma, sequence (P13631 whole entry): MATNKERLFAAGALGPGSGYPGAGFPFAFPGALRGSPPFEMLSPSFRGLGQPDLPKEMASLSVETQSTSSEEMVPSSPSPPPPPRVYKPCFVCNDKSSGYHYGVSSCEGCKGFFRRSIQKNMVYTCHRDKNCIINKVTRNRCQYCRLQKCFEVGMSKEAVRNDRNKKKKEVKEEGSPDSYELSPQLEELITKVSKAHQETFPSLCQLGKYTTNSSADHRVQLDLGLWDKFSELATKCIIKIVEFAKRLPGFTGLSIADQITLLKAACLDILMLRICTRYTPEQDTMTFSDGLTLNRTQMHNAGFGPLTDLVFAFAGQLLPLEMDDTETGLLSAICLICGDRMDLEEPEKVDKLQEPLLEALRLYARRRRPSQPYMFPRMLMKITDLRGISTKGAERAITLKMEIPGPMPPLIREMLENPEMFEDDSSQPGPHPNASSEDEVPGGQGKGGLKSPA
Retinoic acid receptor beta, sequence (P10826 whole entry): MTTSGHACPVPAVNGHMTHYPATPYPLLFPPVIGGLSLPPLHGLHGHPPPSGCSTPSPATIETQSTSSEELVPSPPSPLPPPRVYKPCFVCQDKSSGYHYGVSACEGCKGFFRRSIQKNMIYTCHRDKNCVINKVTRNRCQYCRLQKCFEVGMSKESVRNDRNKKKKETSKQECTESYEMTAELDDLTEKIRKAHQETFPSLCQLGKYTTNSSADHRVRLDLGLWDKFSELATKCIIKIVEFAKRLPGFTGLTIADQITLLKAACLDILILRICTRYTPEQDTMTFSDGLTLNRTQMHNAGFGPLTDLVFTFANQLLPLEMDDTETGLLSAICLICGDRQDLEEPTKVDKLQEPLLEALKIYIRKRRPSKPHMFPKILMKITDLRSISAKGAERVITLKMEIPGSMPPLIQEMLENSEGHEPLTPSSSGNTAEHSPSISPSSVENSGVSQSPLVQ
Retinoic acid receptor RXR-gamma, sequence (P48443 whole entry): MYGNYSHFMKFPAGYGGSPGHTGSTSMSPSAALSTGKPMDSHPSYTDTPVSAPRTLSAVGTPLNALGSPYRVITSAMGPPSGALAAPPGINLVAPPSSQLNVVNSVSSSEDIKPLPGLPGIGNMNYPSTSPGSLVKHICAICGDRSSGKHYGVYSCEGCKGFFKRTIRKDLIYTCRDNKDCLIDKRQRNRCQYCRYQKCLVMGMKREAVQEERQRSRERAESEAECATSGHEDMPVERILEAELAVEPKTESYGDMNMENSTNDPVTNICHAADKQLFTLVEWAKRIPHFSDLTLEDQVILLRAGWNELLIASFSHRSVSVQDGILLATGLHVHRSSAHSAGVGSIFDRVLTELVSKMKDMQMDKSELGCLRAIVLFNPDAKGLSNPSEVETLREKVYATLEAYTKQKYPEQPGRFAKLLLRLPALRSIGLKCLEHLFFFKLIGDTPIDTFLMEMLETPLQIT
5-hydroxytryptamine receptor 2C, sequence (P28335 whole entry): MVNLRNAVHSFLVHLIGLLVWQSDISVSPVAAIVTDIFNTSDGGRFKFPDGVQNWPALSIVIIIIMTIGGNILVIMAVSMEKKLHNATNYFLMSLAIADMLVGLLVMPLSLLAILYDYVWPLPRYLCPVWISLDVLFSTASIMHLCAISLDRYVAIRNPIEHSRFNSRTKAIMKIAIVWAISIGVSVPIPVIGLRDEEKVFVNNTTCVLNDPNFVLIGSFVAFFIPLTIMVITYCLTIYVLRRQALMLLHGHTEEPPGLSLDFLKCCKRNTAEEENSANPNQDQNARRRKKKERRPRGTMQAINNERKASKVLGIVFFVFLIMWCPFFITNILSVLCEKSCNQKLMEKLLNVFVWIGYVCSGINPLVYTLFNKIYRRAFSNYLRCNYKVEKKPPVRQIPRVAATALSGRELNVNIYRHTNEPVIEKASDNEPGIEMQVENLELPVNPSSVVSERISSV
Interstitial collagenase, sequence (P03956 whole entry): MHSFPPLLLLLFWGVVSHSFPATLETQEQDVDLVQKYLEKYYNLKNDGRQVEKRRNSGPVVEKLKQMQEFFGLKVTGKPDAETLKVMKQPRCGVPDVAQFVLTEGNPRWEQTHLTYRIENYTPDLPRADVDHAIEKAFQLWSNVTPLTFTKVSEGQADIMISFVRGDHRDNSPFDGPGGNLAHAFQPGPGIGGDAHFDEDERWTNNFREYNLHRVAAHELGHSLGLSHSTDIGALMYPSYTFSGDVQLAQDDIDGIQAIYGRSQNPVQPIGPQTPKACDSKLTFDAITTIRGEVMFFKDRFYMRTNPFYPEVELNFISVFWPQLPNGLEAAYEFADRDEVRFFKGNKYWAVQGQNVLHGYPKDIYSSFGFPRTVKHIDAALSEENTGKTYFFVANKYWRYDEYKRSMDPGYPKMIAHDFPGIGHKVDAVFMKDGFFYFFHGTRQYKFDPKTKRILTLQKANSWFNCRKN
Integrin alpha-IIb/beta-3, sequence (P05106 27-788 limits assumed): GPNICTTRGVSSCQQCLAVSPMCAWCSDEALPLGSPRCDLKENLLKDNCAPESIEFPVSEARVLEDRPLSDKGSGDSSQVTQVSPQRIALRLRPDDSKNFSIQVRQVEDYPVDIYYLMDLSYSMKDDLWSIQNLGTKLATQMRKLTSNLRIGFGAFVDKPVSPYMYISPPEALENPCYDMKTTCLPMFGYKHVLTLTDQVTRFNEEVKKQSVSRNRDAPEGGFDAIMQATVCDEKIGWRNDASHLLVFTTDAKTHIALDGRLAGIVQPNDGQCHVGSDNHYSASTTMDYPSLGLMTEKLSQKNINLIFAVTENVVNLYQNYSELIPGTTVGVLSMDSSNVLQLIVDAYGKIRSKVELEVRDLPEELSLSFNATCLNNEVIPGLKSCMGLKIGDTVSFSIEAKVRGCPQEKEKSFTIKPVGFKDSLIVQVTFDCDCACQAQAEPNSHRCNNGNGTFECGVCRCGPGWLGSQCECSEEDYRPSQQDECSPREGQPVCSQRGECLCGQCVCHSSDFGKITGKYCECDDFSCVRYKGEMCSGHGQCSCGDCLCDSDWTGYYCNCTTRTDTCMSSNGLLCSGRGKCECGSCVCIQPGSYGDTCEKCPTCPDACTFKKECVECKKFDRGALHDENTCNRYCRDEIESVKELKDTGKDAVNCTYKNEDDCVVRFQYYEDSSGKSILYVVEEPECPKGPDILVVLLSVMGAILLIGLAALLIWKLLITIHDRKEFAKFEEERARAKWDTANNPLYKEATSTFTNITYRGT
Integrin alpha-IIb/beta-3, sequence (P08514 32-887 limits assumed): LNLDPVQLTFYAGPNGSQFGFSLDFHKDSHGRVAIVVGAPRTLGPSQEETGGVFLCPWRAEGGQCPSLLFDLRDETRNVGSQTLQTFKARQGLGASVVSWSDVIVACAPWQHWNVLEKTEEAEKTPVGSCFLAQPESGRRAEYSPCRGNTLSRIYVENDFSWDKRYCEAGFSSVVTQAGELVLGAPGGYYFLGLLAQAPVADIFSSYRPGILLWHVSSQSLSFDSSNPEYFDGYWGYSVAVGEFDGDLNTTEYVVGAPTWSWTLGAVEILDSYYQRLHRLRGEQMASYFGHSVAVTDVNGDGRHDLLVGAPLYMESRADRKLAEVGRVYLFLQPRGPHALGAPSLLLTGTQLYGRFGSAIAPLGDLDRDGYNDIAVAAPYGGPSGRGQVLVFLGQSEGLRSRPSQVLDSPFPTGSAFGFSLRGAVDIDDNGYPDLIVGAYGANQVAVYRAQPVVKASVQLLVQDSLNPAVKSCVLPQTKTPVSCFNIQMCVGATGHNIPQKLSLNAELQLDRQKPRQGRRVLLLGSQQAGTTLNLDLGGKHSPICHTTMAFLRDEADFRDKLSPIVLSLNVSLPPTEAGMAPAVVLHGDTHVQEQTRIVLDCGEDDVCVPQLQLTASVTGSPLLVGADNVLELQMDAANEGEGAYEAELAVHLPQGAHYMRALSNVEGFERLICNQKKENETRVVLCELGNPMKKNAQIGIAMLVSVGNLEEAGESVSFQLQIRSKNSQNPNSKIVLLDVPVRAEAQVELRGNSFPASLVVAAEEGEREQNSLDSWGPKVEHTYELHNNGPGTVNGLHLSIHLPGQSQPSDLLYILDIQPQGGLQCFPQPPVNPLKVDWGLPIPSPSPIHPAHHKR
Integrin alpha-IIb/beta-3, sequence (P08514 891-1039 limits assumed): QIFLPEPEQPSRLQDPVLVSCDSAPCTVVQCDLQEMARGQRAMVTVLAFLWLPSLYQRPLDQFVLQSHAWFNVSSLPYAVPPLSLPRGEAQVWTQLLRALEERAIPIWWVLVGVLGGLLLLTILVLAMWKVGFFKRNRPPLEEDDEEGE

SMILES: CC(=O)O[C@H]1C(=O)[C@@]2(C)[C@H]([C@H](OC(=O)c3ccccc3)[C@]3(O)C[C@H](OC(=O)[C@H](O)[C@@H](NC(=O)c4ccccc4)c4ccccc4)C(C)=C1C3(C)C)[C@]1(OC(C)=O)CO[C@@H]1C[C@@H]2O [PACLITAXEL]
IC50 (1A9): 0.00371 µM

SMILES: O=C(Nc1ccc2c(c1)B(O)OC2)c1ccc(F)cc1C(F)(F)F
IC50 [1]: 0.18 µM

IC50 [2]: 0.01 µM
CL/F [3]: 74 mL/min/kg
half-life [4]: 3 h
SMILES: CC1(C)[C@H](C(=O)N=C(N)N)[C@H]1c1cccc2c1CCO2

IC50 [5]: 0.08 µM
SMILES: CO[C@@H]1[C@@H](OC(N)=O)[C@@H](O)[C@H](Oc2ccc3c(O)c(NC(=O)c4ccc(O)c(CC=C(C)C)c4)c(=O)oc3c2C)OC1(C)C [NOVOBIOCIN]

fold change (FC) (Homo sapiens): 1.4
SMILES: CN[C@]1(C)[C@H]2CC[C@@H](C2)C1(C)C

SMILES: CC1(C)Oc2ccc(C#N)cc2C(N2CCCC2=O)C1O (stereo in doubt; 110) [CROMAKALIM]
Activity (Rattus norvegicus [6]): 47%
Activity (Rattus norvegicus [7]): 31%

SMILES: CO[C@H]1C(=O)[C@]2(C)[C@@H](OC)C[C@H]3OC[C@@]3(OC(C)=O)[C@H]2[C@H](OC(=O)c2ccccc2)[C@]2(O)C[C@H](OC(=O)[C@H](O)[C@@H](NC(=O)OC(C)(C)C)c3ccccc3)C(C)=C1C2(C)C [CABAZITAXEL]
IC50 (A549): 0.00148 µM

fold change (FC) (Homo sapiens): 3
SMILES: CN[C@@]1(C)[C@H]2CC[C@@H](C2)C1(C)C

SMILES: COC(=O)C[C@](O)(CCCC(C)(C)O)C(=O)O[C@@H]1C(OC)=C[C@]23CCCN2CCc2cc4c(cc2[C@H]13)OCO4 [OMACETAXINE MEPESUCCINATE]
IC50 (MCF7): 0.00087 µM
inhibition at 0.05 µM (HeLa): 50%

SMILES: CC1(C)Oc2ccc([N+](=O)[O-])cc2[C@@H](N2CCCC2=O)[C@@H]1O
Activity (Rattus norvegicus [8]): 63%
Activity (Rattus norvegicus [6]): 27%

SMILES: O=C1CCCN1[C@@H]1c2cc([N+](=O)[O-])ccc2OC[C@H]1O
Activity (Rattus norvegicus [9]): 5%

SMILES: COc1ccc2c(c1)-c1c(cnn1C[C@H](C)N)C2(C)C
Ki [10]: 0.00251 µM

SMILES: C/C(=C\c1csc(C)n1)[C@@H]1C[C@@H]2O[C@]2(C)CCC[C@H](C)[C@H](O)[C@@H](C)C(=O)C(C)(C)[C@@H](O)CC(=O)N1 [IXABEPILONE]
IC50 (1A9): 0.00665 µM

SMILES: CC1(C)Oc2ccc(C#N)cc2C(N2CCCC2=O)C1O (single isomer, unassigned; (+)) [CROMAKALIM]
Activity (Rattus norvegicus [11]): 14%

SMILES: CNC1C[C@H]2CC[C@H]1C2 (mixture of isomers)
fold change (FC) (Homo sapiens): > 40

Ki (Prothrombin [12]): 0.5 µM
SMILES: N=C(N)NCCC[C@H](NS(=O)(=O)c1cccc2c1NCCC2)C(=O)N1CCC(CCO)CC1

IC50 (Collagenase 3): 0.0019 µM
IC50 (Matrilysin): 1.1 µM
IC50 (Interstitial collagenase): 0.064 µM
SMILES: COc1ccc(S(=O)(=O)N2CCCSC[C@@H]2C(=O)NO)cc1

Ki (Prothrombin [12]): 0.05 µM
Ki (Prothrombin [13]): 0.03 µM
SMILES: CC1(C)CNc2c(cccc2S(=O)(=O)N[C@@H](CCCNC(=N)N)C(=O)N2CCC(CCO)CC2)C1

EC50 [14]: 2.4 µM
EC50 [15]: 2.6 µM
EC50 [16]: > 10 µM
EC50 [17]: > 10 µM
EC50 [18]: > 10 µM
SMILES: C=C(c1ccc(C(=O)O)cc1)c1cc2c(cc1C)CCCC2(C)C

Cmax [19]: 1210 ng/mL
Tmax [20]: 0.5 h
IC50 [21]: 0.0023 µM
half-life [22]: 1.83 h
SMILES: CCOC(=O)CC1CCN(C(=O)CC(CC)NC(=O)c2ccc(C(=N)N3CCSC3)cc2F)CC1 (racemic)
